Reference: patent US20240226115A1, “AXL INHIBITOR COMPOUNDS” (ARCUS BIOSCIENCES, INC., priority 2021, published 2024)

Target: T1, recombinant human MER (Homo sapiens, UniProt Q12866)
T1 construct: purchased Invitrogen
T1 sequence (Q12866 21-999): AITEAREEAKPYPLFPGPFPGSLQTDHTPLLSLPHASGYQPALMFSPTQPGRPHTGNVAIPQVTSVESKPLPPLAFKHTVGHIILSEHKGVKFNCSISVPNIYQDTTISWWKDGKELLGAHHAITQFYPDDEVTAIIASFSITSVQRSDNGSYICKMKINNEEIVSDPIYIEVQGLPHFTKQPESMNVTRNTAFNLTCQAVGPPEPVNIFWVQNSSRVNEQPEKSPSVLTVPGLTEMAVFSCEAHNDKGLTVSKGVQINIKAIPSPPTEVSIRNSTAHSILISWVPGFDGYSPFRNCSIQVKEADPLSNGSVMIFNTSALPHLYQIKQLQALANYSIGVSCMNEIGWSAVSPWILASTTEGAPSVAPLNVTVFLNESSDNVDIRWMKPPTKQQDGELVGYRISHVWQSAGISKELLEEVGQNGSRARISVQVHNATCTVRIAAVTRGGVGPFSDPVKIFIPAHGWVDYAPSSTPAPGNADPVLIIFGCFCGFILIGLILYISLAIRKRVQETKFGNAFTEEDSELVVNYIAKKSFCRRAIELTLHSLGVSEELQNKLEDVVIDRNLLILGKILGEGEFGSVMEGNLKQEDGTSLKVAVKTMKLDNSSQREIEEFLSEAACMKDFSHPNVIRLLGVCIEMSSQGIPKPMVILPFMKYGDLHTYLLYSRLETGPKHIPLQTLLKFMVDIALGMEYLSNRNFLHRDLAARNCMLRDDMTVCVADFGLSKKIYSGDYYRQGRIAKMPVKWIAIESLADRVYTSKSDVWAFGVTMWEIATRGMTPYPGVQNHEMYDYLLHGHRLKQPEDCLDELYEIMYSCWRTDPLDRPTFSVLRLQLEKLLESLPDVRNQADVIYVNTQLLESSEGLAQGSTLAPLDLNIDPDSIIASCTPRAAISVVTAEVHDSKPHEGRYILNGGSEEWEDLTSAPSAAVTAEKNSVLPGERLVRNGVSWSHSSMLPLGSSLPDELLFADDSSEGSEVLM
Assay: HTRF KinEASE-TK biochemical potency, MER
Conditions: 1 nM MER, 700 μM ATP
Procedure: Purified recombinant human AXL, TYRO3 and MER proteins were purchased from Invitrogen™. 10 nM AXL, 2 nM TYRO3 or MER were incubated with varying concentrations of compounds in 50 mM HEPES, pH 7.4, 10 mM MgCl2, 0.01% BSA, 1 mM DTT and 2% DMSO in a total volume of 20 μl in a 384-well microplate (Corning™ #3640) at RT for 1 h. The AXL, TYRO3 and MER enzymatic reaction was initiated by transferring 10 μl of enzyme and compound mixture into 10 μl of 1.6 μM TK Substrate-biotin (HTRF® KinEASE-TK kit, Cisbio) and 1400 μM ATP pre-incubated in 50 mM HEPES, pH 7.4, 10 mM MgCl2, 0.01% BSA, 1 mM DTT in a 384-well microplate (Corning™ #3640) at RT, giving the final reaction conditions: 5 nM AXL, 1 nM TYRO3 or MER, 800 nM TK Substrate-biotin and 700 μM ATP in 50 mM HEPES, pH 7.4, 10 mM MgCl2, 0.01% BSA, 1 mM DTT and 1% DMSO with varying concentrations of compounds. Following 2 h incubation at RT, the AXL, TYRO3 and MER enzymatic reaction was stopped by transfer of 10 μl of reaction into 10 μl of detection mix (400 nM Streptavidin-XL665, 200-fold dilution TK Antibody-Cryptate and detection buffer, HTRF® KinEASE-TK kit, Cisbio) in a white 384-well microplate (Perkin Elmer, OptiPlate 384). After 1 h incubation at RT, the plate was put into a plate reader (Evision) to read at 665/620 nm (acceptor/donor) for HTRF. The value of the DMSO blank (MIN inhibition=100% activity) was used as a negative control. The positive control was established by adding 5 μl of enzyme and DMSO mixture into 10 μl of detection mix followed by addition of 5 μl of TK Substrate-biotin and ATP mixture (MAX inhibition=0% activity). To calculate the percent activity, Equation 1 was used. Ratio665/620 is the value at a given compound concentration: […]

Compound | IC50 [µM]
C[C@@H]1CCCN1C1CCc2ccc(-c3cnc4[nH]nc(-c5ccc6c(c5)S(=O)(=O)NC6(C)C)c4c3)cc2CC1 (stereo partly drawn) [Example 33, 3,3-Dimethyl-6-(5-{7-[(2R)-2-methylpyrrolidin-1-yl]-6,7,8,9-tetrahydro-5H-benzo[7]annulen-2-yl}-1H-pyrazolo[3,4-b]pyridin-3-yl)-2,3-dihydro-1λ^6,2-benzothiazole-1,1-dione] | < 0.1
CC1(C)NS(=O)(=O)c2cc(-c3n[nH]c4ncc(-c5ccc6c(c5)CCC(N5CCC[C@@H]5CO)CC6)cc34)ccc21 (stereo partly drawn) [Example 34, 6-(5-{7-[(2R)-2-(Hydroxymethyl)pyrrolidin-1-yl]-6,7,8,9-tetrahydro-5H-benzo[7]annulen-2-yl}-1H-pyrazolo[3,4-b]pyridin-3-yl)-3,3-dimethyl-2,3-dihydro-1λ^6,2-benzothiazole-1,1-dione] | < 0.1
CC1(C)COc2cc(-c3n[nH]c4ncc(-c5ccc6c(c5)CCC(N5CCCC5)CC6)cc34)ccc2C(=O)N1 (stereo not drawn) [Example 35, 3,3-Dimethyl-8-{5-[7-(pyrrolidin-1-yl)-6,7,8,9-tetrahydro-5H-benzo[7]annulen-2-yl]-1H-pyrazolo[3,4-b]pyridin-3-yl}-2,3,4,5-tetrahydro-1,4-benzoxazepin-5-one] | < 0.1
C[C@@H]1CCCN1C1CCc2ccc(-c3cnc4[nH]nc(-c5ccc6c(c5)OCC5(CC5)NC6=O)c4c3)cc2CC1 (stereo partly drawn) [Example 36, 8-(5-{7-[(2R)-2-Methylpyrrolidin-1-yl]-6,7,8,9-tetrahydro-5H-benzo[7]annulen-2-yl}-1H-pyrazolo[3,4-b]pyridin-3-yl)-4,5-dihydro-2H-spiro[1,4-benzoxazepine-3,1′-cyclopropan]-5-one] | < 0.1
C[C@@H]1CCCN1C1CCc2ccc(-c3cnc4[nH]nc(-c5ccc6c(c5)OCC5(CCC5)NC6=O)c4c3)cc2CC1 (stereo partly drawn) [Example 37, 8-(5-{7-[(2R)-2-Methylpyrrolidin-1-yl]-6,7,8,9-tetrahydro-5H-benzo[7]annulen-2-yl}-1H-pyrazolo[3,4-b]pyridin-3-yl)-4,5-dihydro-2H-spiro[1,4-benzoxazepine-3,1′-cyclobutan]-5-one] | < 0.1
C[C@@H]1CCCN1C1CCc2ccc(-c3cnc4[nH]nc(-c5ccc6c(c5)C(=O)NC6(C)C)c4c3)cc2CC1 (stereo partly drawn) [Example 38, 3,3-Dimethyl-6-(5-{7-[(2R)-2-methylpyrrolidin-1-yl]-6,7,8,9-tetrahydro-5H-benzo[7]annulen-2-yl}-1H-pyrazolo[3,4-b]pyridin-3-yl)-2,3-dihydro-1H-isoindol-1-one] | 0.1 to 1
C[C@H]1CCCN1C1Cc2ccc(-c3cnc4[nH]nc(-c5ccc6c(c5)OCC(C)(C)NC6=O)c4c3)cc2C1 (stereo partly drawn) [Example 39, 3,3-Dimethyl-8-(5-{2-[(2S)-2-methylpyrrolidin-1-yl]-2,3-dihydro-1H-inden-5-yl}-1H-pyrazolo[3,4-b]pyridin-3-yl)-2,3,4,5-tetrahydro-1,4-benzoxazepin-5-one] | 0.1 to 1
Cc1cc2c(cc1-c1n[nH]c3ncc(-c4ccc5c(c4)CCC(N4CCC[C@H]4C)CC5)cc13)OCCNC2=O (stereo partly drawn) [Example 40, 7-Methyl-8-(5-{7-[(2R)-2-methylpyrrolidin-1-yl]-6,7,8,9-tetrahydro-5H-benzo[7]annulen-2-yl}-1H-pyrazolo[3,4-b]pyridin-3-yl)-2,3,4,5-tetrahydro-1,4-benzoxazepin-5-one] | 0.1 to 1
Cc1c(-c2n[nH]c3ncc(-c4ccc5c(c4)CCC(N4CCC[C@H]4C)CC5)cc23)ccc2c1OCCNC2=O (stereo partly drawn) [Example 41, 9-Methyl-8-(5-{7-[(2R)-2-methylpyrrolidin-1-yl]-6,7,8,9-tetrahydro-5H-benzo[7]annulen-2-yl}-1H-pyrazolo[3,4-b]pyridin-3-yl)-2,3,4,5-tetrahydro-1,4-benzoxazepin-5-one] | 0.1 to 1
O=C1NCCOc2cc(-c3n[nH]c4ncc(-c5ccc6c(c5)CCC(NC5CCCC5)CC6)cc34)ccc21 (stereo not drawn) [Example 42, 8-{5-[7-(Cyclopentylamino)-6,7,8,9-tetrahydro-5H-benzo[7]annulen-2-yl]-1H-pyrazolo[3,4-b]pyridin-3-yl}-2,3,4,5-tetrahydro-1,4-benzoxazepin-5-one] | < 0.1
C[C@H]1CCCN1C1CCc2ccc(-c3cnc4[nH]nc(-c5ccc6c(c5)OCCNC6=O)c4c3)cc2CC1 (stereo partly drawn) [Example 43, 8-(5-{7-[(2S)-2-Methylpyrrolidin-1-yl]-6,7,8,9-tetrahydro-5H-benzo[7]annulen-2-yl}-1H-pyrazolo[3,4-b]pyridin-3-yl)-2,3,4,5-tetrahydro-1,4-benzoxazepin-5-one] | < 0.1
C[C@@H]1CCCN1C1CCc2ccc(-c3cnc4[nH]nc(-c5ccc6c(c5)OCCNC6=O)c4c3)cc2CC1 (stereo partly drawn) [Example 44, 8-(5-{7-[(2R)-2-Methylpyrrolidin-1-yl]-6,7,8,9-tetrahydro-5H-benzo[7]annulen-2-yl}-1H-pyrazolo[3,4-b]pyridin-3-yl)-2,3,4,5-tetrahydro-1,4-benzoxazepin-5-one] | < 0.1
O=C1NCCOc2cc(-c3n[nH]c4ncc(-c5ccc6c(c5)CCC(N[C@H]5CCOC5)CC6)cc34)ccc21 (stereo partly drawn) [Example 45, 8-[5-(7-{[(3S)—Oxolan-3-yl]amino}-6,7,8,9-tetrahydro-5H-benzo[7]annulen-2-yl)-1H-pyrazolo[3,4-b]pyridin-3-yl]-2,3,4,5-tetrahydro-1,4-benzoxazepin-5-one] | < 0.1
O=C1NCCOc2cc(-c3n[nH]c4ncc(-c5ccc6c(c5)CCC(N[C@@H]5CCOC5)CC6)cc34)ccc21 (stereo partly drawn) [Example 46, 8-[5-(7-{[(3R)—Oxolan-3-yl]amino}-6,7,8,9-tetrahydro-5H-benzo[7]annulen-2-yl)-1H-pyrazolo[3,4-b]pyridin-3-yl]-2,3,4,5-tetrahydro-1,4-benzoxazepin-5-one] | < 0.1
O=C1NCCOc2cc(-c3n[nH]c4ncc(-c5ccc6c(c5)CCC(N5CCOCC5)CC6)cc34)ccc21 (stereo not drawn) [Example 47, 8-{5-[7-(Morpholin-4-yl)-6,7,8,9-tetrahydro-5H-benzo[7]annulen-2-yl]-1H-pyrazolo[3,4-b]pyridin-3-yl}-2,3,4,5-tetrahydro-1,4-benzoxazepin-5-one] | < 0.1
O=C1NCCOc2cc(-c3n[nH]c4ncc(-c5ccc6c(c5)CCC(N5CCNCC5)CC6)cc34)ccc21 (stereo not drawn) [Example 48, 8-{5-[7-(Piperazin-1-yl)-6,7,8,9-tetrahydro-5H-benzo[7]annulen-2-yl]-1H-pyrazolo[3,4-b]pyridin-3-yl}-2,3,4,5-tetrahydro-1,4-benzoxazepin-5-one] | < 0.1
O=C1NCCOc2cc(-c3n[nH]c4ncc(-c5ccc6c(c5)CCC(N5CCC[C@@H]5CO)CC6)cc34)ccc21 (stereo partly drawn) [Example 49, 8-(5-{7-[(2R)-2-(Hydroxymethyl)pyrrolidin-1-yl]-6,7,8,9-tetrahydro-5H-benzo[7]annulen-2-yl}-1H-pyrazolo[3,4-b]pyridin-3-yl)-2,3,4,5-tetrahydro-1,4-benzoxazepin-5-one] | < 0.1
O=C1NCCOc2cc(-c3n[nH]c4ncc(-c5ccc6c(c5)CCC(N5CCC[C@H]5CO)CC6)cc34)ccc21 (stereo partly drawn) [Example 50, 8-(5-{7-[(2S)-2-(Hydroxymethyl)pyrrolidin-1-yl]-6,7,8,9-tetrahydro-5H-benzo[7]annulen-2-yl}-1H-pyrazolo[3,4-b]pyridin-3-yl)-2,3,4,5-tetrahydro-1,4-benzoxazepin-5-one] | < 0.1
